Reference: patent US9828360B2 (Array BioPharma Inc., priority 2012, dated 2017)

What was measured:
Test in all cases: KinaseProfiler off-target kinase profiling
Assay type in all cases: biochemical
Conditions in all cases: 10 μM, ATP near Km
[1] = molecular target: T1, ALK (Homo sapiens, UniProt Q9UM73)
T1 construct: purchased Millipore, Inc. (KinaseProfiler service)
Protocol: (§1) A representative compound of the invention (Example 48) was tested for off-target kinase activity at a concentration of 10 μM by Millipore, Inc. in their KinaseProfiler™ service against all the kinases available in their full kinase panel. The compound was run in duplicate at a concentration of ATP near the Km for each individual kinase according to Millipore's specifications. The results are shown in Table B. Data are reported as percent of control (POC) and are the average of the two replicates.

[2] = molecular target: T2, BLK_m (Mus musculus, UniProt P16277)
T2 construct: purchased Millipore, Inc. (KinaseProfiler service)
Protocol: as §1

[3] = molecular target: T3, CHK1 (Homo sapiens, UniProt O14757)
T3 construct: purchased Millipore, Inc. (KinaseProfiler service)
Protocol: as §1

[4] = molecular target: T4, CLK3 (Homo sapiens, UniProt P49761)
T4 construct: purchased Millipore, Inc. (KinaseProfiler service)
Protocol: as §1

[5] = molecular target: T5, EGFR (Homo sapiens, UniProt P00533)
T5 construct: purchased Millipore, Inc. (KinaseProfiler service)
Protocol: as §1

[6] = molecular target: T6, EphA1 (Homo sapiens, UniProt P21709)
T6 construct: purchased Millipore, Inc. (KinaseProfiler service)
T6 sequence (P21709 26-976): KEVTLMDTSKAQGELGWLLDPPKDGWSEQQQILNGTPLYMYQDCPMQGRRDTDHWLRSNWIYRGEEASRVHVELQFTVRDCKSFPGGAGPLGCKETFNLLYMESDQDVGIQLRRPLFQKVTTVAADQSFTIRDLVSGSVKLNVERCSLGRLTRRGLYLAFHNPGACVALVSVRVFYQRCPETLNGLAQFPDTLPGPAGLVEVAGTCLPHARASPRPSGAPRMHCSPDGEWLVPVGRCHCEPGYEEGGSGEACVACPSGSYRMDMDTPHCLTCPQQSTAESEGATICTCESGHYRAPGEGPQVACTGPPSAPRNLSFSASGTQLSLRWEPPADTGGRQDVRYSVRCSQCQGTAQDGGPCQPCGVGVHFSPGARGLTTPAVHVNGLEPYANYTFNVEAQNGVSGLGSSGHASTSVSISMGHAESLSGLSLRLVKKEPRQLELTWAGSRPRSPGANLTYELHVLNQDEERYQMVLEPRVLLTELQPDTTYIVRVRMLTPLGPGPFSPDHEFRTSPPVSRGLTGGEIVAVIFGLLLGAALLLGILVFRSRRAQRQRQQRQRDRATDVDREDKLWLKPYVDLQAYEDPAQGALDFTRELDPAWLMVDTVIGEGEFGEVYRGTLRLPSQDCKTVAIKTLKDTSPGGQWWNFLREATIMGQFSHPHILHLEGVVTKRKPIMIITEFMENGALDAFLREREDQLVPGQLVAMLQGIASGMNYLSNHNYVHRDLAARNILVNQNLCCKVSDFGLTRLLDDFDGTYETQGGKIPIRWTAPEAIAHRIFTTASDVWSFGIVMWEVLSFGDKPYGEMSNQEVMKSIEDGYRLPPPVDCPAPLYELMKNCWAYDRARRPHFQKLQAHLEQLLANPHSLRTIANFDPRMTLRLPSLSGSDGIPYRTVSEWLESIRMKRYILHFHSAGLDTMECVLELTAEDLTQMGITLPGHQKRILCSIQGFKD
Protocol: as §1

[7] = molecular target: T7, EphA4 (Homo sapiens, UniProt P54764)
T7 construct: purchased Millipore, Inc. (KinaseProfiler service)
Protocol: as §1

[8] = molecular target: T8, EphA5 (Homo sapiens, UniProt P54756)
T8 construct: purchased Millipore, Inc. (KinaseProfiler service)
Protocol: as §1

[9] = molecular target: T9, EphA7 (Homo sapiens, UniProt Q15375)
T9 construct: purchased Millipore, Inc. (KinaseProfiler service)
Protocol: as §1

[10] = molecular target: T10, EphB4 (Homo sapiens, UniProt P54760)
T10 construct: purchased Millipore, Inc. (KinaseProfiler service)
Protocol: as §1

[11] = molecular target: T11, Fyn (Homo sapiens, UniProt P06241)
T11 construct: purchased Millipore, Inc. (KinaseProfiler service)
Protocol: as §1

[12] = molecular target: T12, GRK5 (Homo sapiens, UniProt P34947)
T12 construct: purchased Millipore, Inc. (KinaseProfiler service)
Protocol: as §1

[13] = molecular target: T13, HIPK2 (Homo sapiens, UniProt Q9H2X6)
T13 construct: purchased Millipore, Inc. (KinaseProfiler service)
Protocol: as §1

[14] = molecular target: T14, IR (Homo sapiens, UniProt P06213)
T14 construct: purchased Millipore, Inc. (KinaseProfiler service)
T14 sequence (P06213 28-1382): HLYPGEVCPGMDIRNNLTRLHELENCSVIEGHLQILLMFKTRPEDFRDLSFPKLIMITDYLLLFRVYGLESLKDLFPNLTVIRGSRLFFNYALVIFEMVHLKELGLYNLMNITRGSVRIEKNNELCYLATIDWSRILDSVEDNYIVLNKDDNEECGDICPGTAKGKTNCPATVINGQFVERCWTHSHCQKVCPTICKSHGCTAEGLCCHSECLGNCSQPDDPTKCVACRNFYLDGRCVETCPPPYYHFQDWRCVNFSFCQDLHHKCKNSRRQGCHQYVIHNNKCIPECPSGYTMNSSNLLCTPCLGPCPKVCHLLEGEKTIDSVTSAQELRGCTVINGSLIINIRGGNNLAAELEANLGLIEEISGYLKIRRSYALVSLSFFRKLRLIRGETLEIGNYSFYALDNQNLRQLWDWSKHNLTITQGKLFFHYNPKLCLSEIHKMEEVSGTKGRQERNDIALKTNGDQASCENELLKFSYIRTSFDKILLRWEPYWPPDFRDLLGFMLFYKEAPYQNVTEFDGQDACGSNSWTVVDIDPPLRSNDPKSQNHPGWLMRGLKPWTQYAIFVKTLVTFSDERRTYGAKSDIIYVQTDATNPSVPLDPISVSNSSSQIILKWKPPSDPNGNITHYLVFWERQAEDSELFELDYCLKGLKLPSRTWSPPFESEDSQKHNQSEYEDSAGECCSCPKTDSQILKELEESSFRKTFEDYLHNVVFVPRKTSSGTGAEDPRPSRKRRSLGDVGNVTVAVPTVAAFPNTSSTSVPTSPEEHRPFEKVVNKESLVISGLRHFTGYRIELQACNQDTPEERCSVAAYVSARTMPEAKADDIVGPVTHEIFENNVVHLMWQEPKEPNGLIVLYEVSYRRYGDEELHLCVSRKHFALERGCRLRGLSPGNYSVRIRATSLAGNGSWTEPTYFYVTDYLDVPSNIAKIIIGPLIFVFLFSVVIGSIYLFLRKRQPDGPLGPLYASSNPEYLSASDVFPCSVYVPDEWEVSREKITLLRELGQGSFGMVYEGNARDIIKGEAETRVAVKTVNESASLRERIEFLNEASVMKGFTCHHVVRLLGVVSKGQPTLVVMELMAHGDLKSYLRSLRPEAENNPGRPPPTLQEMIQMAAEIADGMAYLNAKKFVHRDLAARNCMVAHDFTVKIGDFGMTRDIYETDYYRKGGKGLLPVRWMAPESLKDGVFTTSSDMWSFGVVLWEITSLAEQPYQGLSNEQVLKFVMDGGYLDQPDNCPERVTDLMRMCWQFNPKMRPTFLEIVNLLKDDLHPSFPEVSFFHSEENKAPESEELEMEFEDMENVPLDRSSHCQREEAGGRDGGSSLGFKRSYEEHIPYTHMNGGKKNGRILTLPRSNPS
Protocol: as §1

[15] = molecular target: T15, JNK3 (Homo sapiens, UniProt P53779)
T15 construct: purchased Millipore, Inc. (KinaseProfiler service)
Protocol: as §1

[16] = molecular target: T16, Lyn (Homo sapiens, UniProt P07948)
T16 construct: purchased Millipore, Inc. (KinaseProfiler service)
Protocol: as §1

[17] = molecular target: T17, MAP4K2 (Homo sapiens, UniProt Q12851)
T17 construct: purchased Millipore, Inc. (KinaseProfiler service)
Protocol: as §1

[18] = molecular target: T18, MAPKAP-K3 (Homo sapiens, UniProt Q16644)
T18 construct: purchased Millipore, Inc. (KinaseProfiler service)
T18 sequence (Q16644 whole entry): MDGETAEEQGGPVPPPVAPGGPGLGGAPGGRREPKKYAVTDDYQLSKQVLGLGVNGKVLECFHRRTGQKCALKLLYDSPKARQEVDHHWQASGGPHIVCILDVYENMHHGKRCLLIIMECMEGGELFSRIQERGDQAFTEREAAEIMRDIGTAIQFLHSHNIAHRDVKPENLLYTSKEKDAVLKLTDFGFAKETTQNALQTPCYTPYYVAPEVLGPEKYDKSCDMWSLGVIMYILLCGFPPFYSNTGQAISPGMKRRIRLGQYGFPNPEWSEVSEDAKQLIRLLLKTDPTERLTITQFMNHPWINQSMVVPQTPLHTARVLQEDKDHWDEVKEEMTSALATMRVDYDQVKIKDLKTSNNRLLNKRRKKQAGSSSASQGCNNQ
Protocol: as §1

[19] = molecular target: T19, MELK (Homo sapiens, UniProt Q14680)
T19 construct: purchased Millipore, Inc. (KinaseProfiler service)
Protocol: as §1

[20] = molecular target: T20, MKNK2 (Homo sapiens, UniProt Q9HBH9)
T20 construct: purchased Millipore, Inc. (KinaseProfiler service)
Protocol: as §1

[21] = molecular target: T21, MST2 (Homo sapiens, UniProt Q13188)
T21 construct: purchased Millipore, Inc. (KinaseProfiler service)
Protocol: as §1

[22] = molecular target: T22, PAK2 (Homo sapiens, UniProt Q13177)
T22 construct: purchased Millipore, Inc. (KinaseProfiler service)
T22 sequence (Q13177 whole entry): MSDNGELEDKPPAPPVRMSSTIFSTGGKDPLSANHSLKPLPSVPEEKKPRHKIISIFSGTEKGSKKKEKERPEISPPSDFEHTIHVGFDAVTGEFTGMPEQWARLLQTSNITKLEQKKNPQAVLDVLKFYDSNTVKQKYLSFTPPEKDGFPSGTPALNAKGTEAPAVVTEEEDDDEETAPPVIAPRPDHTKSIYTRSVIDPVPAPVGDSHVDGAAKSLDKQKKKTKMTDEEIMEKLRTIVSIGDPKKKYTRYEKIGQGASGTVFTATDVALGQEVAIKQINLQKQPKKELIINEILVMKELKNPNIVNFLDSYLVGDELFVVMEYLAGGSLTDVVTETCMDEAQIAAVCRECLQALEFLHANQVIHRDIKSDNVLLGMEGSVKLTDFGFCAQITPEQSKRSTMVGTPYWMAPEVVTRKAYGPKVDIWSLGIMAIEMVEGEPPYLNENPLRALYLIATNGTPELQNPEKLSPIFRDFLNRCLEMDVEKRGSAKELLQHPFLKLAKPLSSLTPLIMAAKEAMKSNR
Protocol: as §1

[23] = molecular target: T23, PAK6 (Homo sapiens, UniProt Q9NQU5)
T23 construct: purchased Millipore, Inc. (KinaseProfiler service)
Protocol: as §1

[24] = molecular target: T24, PDGFRalpha (Homo sapiens, UniProt P16234)
T24 construct: purchased Millipore, Inc. (KinaseProfiler service)
Protocol: as §1

[25] = molecular target: T25, PDGFRbeta (Homo sapiens, UniProt P09619)
T25 construct: purchased Millipore, Inc. (KinaseProfiler service)
Protocol: as §1

[26] = molecular target: T26, PKAC-alpha (Homo sapiens, UniProt P17612)
T26 construct: purchased Millipore, Inc. (KinaseProfiler service)
Protocol: as §1

[27] = molecular target: T27, PKCeta (Homo sapiens, UniProt P24723)
T27 construct: purchased Millipore, Inc. (KinaseProfiler service)
Protocol: as §1

[28] = molecular target: T28, PKCzeta (Homo sapiens, UniProt Q05513)
T28 construct: purchased Millipore, Inc. (KinaseProfiler service)
T28 sequence (Q05513 whole entry): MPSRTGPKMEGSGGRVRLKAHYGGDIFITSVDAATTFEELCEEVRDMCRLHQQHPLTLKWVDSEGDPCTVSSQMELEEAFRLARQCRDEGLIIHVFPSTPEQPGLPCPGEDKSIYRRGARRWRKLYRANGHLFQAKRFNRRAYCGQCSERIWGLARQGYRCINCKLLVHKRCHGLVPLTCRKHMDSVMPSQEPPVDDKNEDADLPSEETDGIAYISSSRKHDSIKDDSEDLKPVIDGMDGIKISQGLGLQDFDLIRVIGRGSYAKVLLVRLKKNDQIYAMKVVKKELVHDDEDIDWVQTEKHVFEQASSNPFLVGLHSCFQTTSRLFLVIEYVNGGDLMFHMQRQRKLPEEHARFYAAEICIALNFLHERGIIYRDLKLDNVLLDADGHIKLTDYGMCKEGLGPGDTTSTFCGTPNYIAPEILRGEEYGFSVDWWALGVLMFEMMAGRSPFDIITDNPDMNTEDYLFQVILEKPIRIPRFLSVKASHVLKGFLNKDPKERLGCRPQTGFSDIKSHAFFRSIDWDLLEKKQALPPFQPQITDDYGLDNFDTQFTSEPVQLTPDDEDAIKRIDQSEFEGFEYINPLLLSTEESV
Protocol: as §1

[29] = molecular target: T29, PRKG1alpha (Homo sapiens, UniProt Q13976)
T29 construct: purchased Millipore, Inc. (KinaseProfiler service)
Protocol: as §1

[30] = molecular target: T30, PTK6 (Homo sapiens, UniProt Q13882)
T30 construct: purchased Millipore, Inc. (KinaseProfiler service)
Protocol: as §1

[31] = molecular target: T31, Pim-2 (Homo sapiens, UniProt Q9P1W9)
T31 construct: purchased Millipore, Inc. (KinaseProfiler service)
T31 sequence (Q9P1W9 whole entry): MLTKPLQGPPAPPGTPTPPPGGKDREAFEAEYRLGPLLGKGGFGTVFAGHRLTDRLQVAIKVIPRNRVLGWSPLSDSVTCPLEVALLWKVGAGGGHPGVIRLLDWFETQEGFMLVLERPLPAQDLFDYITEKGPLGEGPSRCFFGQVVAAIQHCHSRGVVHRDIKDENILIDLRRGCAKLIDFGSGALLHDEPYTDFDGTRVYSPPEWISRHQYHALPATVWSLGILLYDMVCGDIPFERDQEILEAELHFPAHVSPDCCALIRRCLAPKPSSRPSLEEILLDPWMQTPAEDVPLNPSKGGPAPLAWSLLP
Protocol: as §1

[32] = molecular target: T32, Plk1 (Homo sapiens, UniProt P53350)
T32 construct: purchased Millipore, Inc. (KinaseProfiler service)
Protocol: as §1

[33] = molecular target: T33, ROCK-II (Homo sapiens, UniProt O75116)
T33 construct: purchased Millipore, Inc. (KinaseProfiler service)
Protocol: as §1

[34] = molecular target: T34, Rsk1 (Homo sapiens, UniProt Q15418)
T34 construct: purchased Millipore, Inc. (KinaseProfiler service)
Protocol: as §1

[35] = molecular target: T35, SRC (Homo sapiens, UniProt P12931)
T35 construct: purchased Millipore, Inc. (KinaseProfiler service)
Protocol: as §1

[36] = molecular target: T36, STK33 (Homo sapiens, UniProt Q9BYT3)
T36 construct: purchased Millipore, Inc. (KinaseProfiler service)
Protocol: as §1

[37] = molecular target: T37, TLK2 (Homo sapiens, UniProt Q86UE8)
T37 construct: purchased Millipore, Inc. (KinaseProfiler service)
Protocol: as §1

[38] = molecular target: T38, TNK2 (Homo sapiens, UniProt Q07912)
T38 construct: purchased Millipore, Inc. (KinaseProfiler service)
Protocol: as §1

[39] = molecular target: T39, TSSK2 (Homo sapiens, UniProt Q96PF2)
T39 construct: purchased Millipore, Inc. (KinaseProfiler service)
T39 sequence (Q96PF2 whole entry): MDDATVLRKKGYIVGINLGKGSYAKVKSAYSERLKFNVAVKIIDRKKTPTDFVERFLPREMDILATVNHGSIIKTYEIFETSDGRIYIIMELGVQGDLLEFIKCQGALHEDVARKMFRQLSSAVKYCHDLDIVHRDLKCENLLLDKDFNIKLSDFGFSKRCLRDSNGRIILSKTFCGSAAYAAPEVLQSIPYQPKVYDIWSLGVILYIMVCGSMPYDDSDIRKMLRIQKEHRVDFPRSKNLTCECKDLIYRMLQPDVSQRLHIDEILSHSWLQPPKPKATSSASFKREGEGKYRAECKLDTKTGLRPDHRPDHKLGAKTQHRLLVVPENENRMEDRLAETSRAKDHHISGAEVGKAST
Protocol: as §1

[40] = molecular target: T40, VRK2 (Homo sapiens, UniProt Q86Y07)
T40 construct: purchased Millipore, Inc. (KinaseProfiler service)
T40 sequence (Q86Y07 whole entry): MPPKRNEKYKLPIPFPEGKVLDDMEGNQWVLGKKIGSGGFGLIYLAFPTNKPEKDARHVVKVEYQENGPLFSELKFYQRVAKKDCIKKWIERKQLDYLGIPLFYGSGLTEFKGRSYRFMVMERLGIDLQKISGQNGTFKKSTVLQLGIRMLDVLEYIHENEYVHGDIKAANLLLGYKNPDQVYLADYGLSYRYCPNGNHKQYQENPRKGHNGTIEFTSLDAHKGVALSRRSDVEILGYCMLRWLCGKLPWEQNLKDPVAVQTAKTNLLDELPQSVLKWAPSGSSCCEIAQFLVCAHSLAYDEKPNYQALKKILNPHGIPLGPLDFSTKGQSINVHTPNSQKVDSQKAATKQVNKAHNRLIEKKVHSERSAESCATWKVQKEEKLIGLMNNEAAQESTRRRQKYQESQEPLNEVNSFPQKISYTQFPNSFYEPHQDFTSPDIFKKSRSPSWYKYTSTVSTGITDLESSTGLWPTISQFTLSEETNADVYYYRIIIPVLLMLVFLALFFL
Protocol: as §1

[41] = molecular target: T41, mTOR/FKBP12 (Homo sapiens, UniProt P42345)
T41 construct: purchased Millipore, Inc. (KinaseProfiler service)
Protocol: as §1

Avg POC [1]: 125% of control
Avg POC [2]: 107% of control
Avg POC [3]: 110% of control
Avg POC [4]: 101.5% of control
Avg POC [5]: 111% of control
Avg POC [6]: 113.5% of control
Avg POC [7]: 105.5% of control
Avg POC [8]: 107% of control
Avg POC [9]: 101% of control
Avg POC [10]: 99% of control
Avg POC [11]: 108.5% of control
Avg POC [12]: 106.5% of control
Avg POC [13]: 103% of control
Avg POC [14]: 102% of control
Avg POC [15]: 106% of control
Avg POC [16]: 108.5% of control
Avg POC [17]: 110.5% of control
Avg POC [18]: 75.5% of control
Avg POC [19]: 89% of control
Avg POC [20]: 96% of control
Avg POC [21]: 109.5% of control
Avg POC [22]: 101.5% of control
Avg POC [23]: 94% of control
Avg POC [24]: 104.5% of control
Avg POC [25]: 103.5% of control
Avg POC [26]: 98.5% of control
Avg POC [27]: 93% of control
Avg POC [28]: 108% of control
Avg POC [29]: 106% of control
Avg POC [30]: 99.5% of control
Avg POC [31]: 104% of control
Avg POC [32]: 93% of control
Avg POC [33]: 104.5% of control
Avg POC [34]: 121% of control
Avg POC [35]: 124% of control
Avg POC [36]: 110% of control
Avg POC [37]: 98% of control
Avg POC [38]: 99.5% of control
Avg POC [39]: 124% of control
Avg POC [40]: 98% of control
Avg POC [41]: 111.5% of control
SMILES: COCCN1C[C@@H](NC(=O)Nc2sc(C(C)C)nc2-c2ccccc2)[C@H](c2ccccc2)C1 [Example 48, 1-(2-isopropyl-4-phenylthiazol-5-yl)-3-((3S,4R)-1-(2-methoxyethyl)-4-phenylpyrrolidin-3-yl)urea]
